Key:
Rattus norvegicus [1] = assay: Effective dose on the 8-OH-DPAT induced response at 3 mg/kg sc in presence of 8-OH-DPAT (Effective dose value for 8-OH-DPAT = 0.17); assay type: functional; conditions: route subcutaneous
[2] = target: T1, 5-hydroxytryptamine receptor 1A (Homo sapiens, UniProt P08908)
T1 sequence (P08908 whole entry): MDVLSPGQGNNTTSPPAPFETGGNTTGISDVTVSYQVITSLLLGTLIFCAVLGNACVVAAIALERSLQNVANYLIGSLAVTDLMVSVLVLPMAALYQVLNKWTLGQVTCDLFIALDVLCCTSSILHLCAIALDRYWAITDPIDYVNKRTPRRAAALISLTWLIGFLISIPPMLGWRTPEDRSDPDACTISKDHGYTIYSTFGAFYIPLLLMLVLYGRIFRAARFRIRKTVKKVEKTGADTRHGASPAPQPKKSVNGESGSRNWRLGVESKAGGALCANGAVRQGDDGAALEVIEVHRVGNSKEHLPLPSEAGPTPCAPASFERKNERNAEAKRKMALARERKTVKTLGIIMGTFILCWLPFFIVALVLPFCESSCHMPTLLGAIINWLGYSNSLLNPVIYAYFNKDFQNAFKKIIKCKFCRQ

[3] = target: T1, 5-hydroxytryptamine receptor 1A; remark: listed apart in the source
Rattus norvegicus [4] = assay: Effective dose on the 8-OH-DPAT induced response at 3 mg/kg sc in presence of 8-OH-DPAT (Effective dose value for 8-OH-DPAT = 0.32); assay type: functional; conditions: route subcutaneous
[5] = target: T1, 5-hydroxytryptamine receptor 1A; assay: biochemical
Rattus norvegicus [6] = assay: Effective dose on the 8-OH-DPAT induced response at 3 mg/kg sc in presence of 8-OH-DPAT (Effective dose value for 8-OH-DPAT = 0.25); assay type: functional; conditions: route subcutaneous
Rattus norvegicus [7] = assay: Effective dose on the 8-OH-DPAT induced response at 3 mg/kg sc in presence of 8-OH-DPAT (Effective dose value for 8-OH-DPAT = 0.18); assay type: functional; conditions: route subcutaneous

IC50 [3] [nM] | Ki [5] [nM] | SMILES | also measured
32.1 | 1.9 | C[C@H](CN(C(=O)c1ccc(C(F)(F)F)cc1)c1ccccn1)N1CCN(c2cccc3c2OCCO3)CC1 | IC50 [2]: 6.2 nM; ED50 (Rattus norvegicus [4]): 0.94 mg/kg
– | 3.4 | C[C@@H](CN(C(=O)c1ccc([N+](=O)[O-])cc1)c1ccccn1)N1CCN(c2cccc3c2OCCO3)CC1 | –
– | 9.2 | C[C@@H](CN(C(=O)c1ccc(C#N)cc1)c1ccccn1)N1CCN(c2cccc3c2OCCO3)CC1 | –
– | 8.6 | C[C@@H](CN(C(=O)c1ccc(C(F)(F)F)cc1)c1ccccn1)N1CCN(c2cccc3c2OCCO3)CC1 | –

The remaining lines, values behind:

SMILES | IC50 [3] [nM] | Ki [5] [nM] | also measured
C[C@H](CN(C(=O)c1ccc(Cl)cc1)c1ccccn1)N1CCN(c2cccc3c2OCCO3)CC1 | – | – | ED50 (Rattus norvegicus [1]): 1.82 mg/kg
C[C@H](CN(C(=O)c1ccc([N+](=O)[O-])cc1)c1ccccn1)N1CCN(c2cccc3c2OCCO3)CC1 | 23.2 | 1 | IC50 [2]: 4.3 nM; ED50 (Rattus norvegicus [6]): 3.19 mg/kg
C[C@H](CN(C(=O)c1ccc(C#N)cc1)c1ccccn1)N1CCN(c2cccc3c2OCCO3)CC1 [LECOZOTAN] | 42 | – | ED50 (Rattus norvegicus [7]): 3.68 mg/kg

Reference: ChEMBL document CHEMBL1139501, “Synthesis and biological evaluation of benzodioxanylpiperazine derivatives as potent serotonin 5-HT(1A) antagonists: the discovery of Lecozotan” (J Med Chem, 2005)
